Measured values as given in ChEMBL document CHEMBL1201862, “PubChem BioAssay data set” (2004).
Several values for one entry are separate records, joined by “and”; a condition that tells them apart may be missing. Identical values can stand only once. Activity calls are given as the source filed them.

Experiments:
Cytochrome P450 3A4 = Cytochrome P450 3A4 (Homo sapiens, UniProt P08684); conditions: Potency;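 note: confirmatory qHTS run detecting inhibitors and substrates of CYP3A4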
Aminopeptidase N = molecular target: T1, Aminopeptidase N (Plasmodium falciparum FcB1/Columbia, UniProt O96935); test: malaria alanyl aminopeptidase activity blockers – biochemical, fluorogenic H-Leu-NHMec substrate, 1536-well (AID 1445); set-up: species or system Plasmodium falciparum 3D7, 3D7
T1 sequence (O96935 whole entry): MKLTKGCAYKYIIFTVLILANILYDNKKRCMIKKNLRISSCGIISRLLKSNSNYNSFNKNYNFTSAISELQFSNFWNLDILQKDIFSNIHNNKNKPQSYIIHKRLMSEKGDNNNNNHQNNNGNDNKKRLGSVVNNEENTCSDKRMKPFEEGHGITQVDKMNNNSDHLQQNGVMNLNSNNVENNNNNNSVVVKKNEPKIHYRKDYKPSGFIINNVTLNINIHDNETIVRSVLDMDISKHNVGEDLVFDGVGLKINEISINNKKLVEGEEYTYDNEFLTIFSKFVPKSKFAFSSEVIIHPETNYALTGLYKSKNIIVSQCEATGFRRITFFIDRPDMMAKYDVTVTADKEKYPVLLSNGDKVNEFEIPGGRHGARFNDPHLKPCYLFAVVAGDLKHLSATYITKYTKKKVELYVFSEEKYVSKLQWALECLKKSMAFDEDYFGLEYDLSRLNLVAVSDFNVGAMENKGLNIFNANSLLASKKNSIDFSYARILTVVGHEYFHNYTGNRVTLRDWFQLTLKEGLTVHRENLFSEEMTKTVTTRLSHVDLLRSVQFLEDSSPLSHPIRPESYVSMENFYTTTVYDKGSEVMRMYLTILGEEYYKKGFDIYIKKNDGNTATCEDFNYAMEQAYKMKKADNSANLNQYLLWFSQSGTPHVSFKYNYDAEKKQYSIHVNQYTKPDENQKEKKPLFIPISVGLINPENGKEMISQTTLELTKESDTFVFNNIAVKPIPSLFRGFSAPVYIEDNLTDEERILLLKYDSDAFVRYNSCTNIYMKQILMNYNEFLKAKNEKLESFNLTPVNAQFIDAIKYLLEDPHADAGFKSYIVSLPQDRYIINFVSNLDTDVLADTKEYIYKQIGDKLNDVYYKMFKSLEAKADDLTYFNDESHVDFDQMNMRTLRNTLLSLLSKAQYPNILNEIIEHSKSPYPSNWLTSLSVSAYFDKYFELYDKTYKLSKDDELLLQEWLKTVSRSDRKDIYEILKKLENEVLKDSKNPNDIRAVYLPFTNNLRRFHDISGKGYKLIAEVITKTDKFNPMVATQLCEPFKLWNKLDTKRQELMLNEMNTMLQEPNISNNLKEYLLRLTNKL

Coagulation factor XII = molecular target: T2, Coagulation factor XII (Homo sapiens, UniProt P00748); format: functional;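 note: activated factor XIIa alpha cleaving a fluorogenic AMC peptide substrate; inhibitor potency from loss of enzyme activity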
T2 sequence (P00748 whole entry): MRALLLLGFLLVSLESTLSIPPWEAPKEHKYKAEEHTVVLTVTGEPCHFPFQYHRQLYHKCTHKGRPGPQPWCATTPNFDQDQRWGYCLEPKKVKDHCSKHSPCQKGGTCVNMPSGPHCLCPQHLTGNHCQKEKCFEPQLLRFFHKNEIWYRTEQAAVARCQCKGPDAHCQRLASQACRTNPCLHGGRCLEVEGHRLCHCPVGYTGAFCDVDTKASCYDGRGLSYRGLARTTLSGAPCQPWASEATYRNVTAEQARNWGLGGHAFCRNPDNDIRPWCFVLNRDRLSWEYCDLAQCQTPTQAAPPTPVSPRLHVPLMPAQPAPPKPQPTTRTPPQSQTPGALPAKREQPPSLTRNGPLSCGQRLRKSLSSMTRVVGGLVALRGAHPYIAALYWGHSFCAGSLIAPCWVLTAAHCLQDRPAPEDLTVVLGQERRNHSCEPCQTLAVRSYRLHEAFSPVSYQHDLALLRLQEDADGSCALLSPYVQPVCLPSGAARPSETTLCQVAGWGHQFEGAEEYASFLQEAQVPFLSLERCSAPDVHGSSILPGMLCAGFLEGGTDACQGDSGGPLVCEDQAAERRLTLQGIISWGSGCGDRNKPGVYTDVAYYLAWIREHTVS

[1] = HEK-293T cell viability reduction – luminescence, B-cell screen hits, cytotoxicity control for BCR NF-kB inhibitor project, dose response (AID 489021); format: functional, cell-based;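 note: HEK-293T cells carrying an NF-kB luciferase reporter; cells exposed to compound for about 14 hours before viability readout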
[2] = THP-1 cell cytotoxicity, dose response, cytotoxicity control for non-replicating M. tuberculosis project (AID 489025); format: functional
cells = format: functional
[3] = molecular target: DNA dC->dU-editing enzyme APOBEC-3A (Homo sapiens, UniProt P31941); test: Dose Response confirmation of small molecule APOBEC3A DNA Deaminase Inhibitors via a fluorescence-based single-stranded DNA deaminase assay. [Related pubchem assays (depositor defined):AID493011, AID493024]; format: functional
DNA dC->dU-editing enzyme APOBEC-3A, sequence (P31941 whole entry): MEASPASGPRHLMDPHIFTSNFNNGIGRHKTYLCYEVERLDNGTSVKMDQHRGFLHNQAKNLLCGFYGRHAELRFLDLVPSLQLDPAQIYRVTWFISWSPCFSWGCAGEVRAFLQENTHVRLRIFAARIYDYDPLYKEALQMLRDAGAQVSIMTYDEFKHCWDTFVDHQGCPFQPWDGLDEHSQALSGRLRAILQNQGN

[4] = molecular target: DNA dC->dU-editing enzyme APOBEC-3G (Homo sapiens, UniProt Q9HC16); format: functional;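 note: Dose-response counterscreen measuring inhibition of APOBEC3G DNA deaminase activity, run while confirming APOBEC3A inhibitors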
[5] = molecular target: T3, Voltage-gated N-type calcium channel alpha-1B subunit/Amyloid beta A4 precursor protein-binding family A member 1 (Homo sapiens, UniProt Q00975+Q02410); format: protein assay
T3 sequence (Q00975 whole entry): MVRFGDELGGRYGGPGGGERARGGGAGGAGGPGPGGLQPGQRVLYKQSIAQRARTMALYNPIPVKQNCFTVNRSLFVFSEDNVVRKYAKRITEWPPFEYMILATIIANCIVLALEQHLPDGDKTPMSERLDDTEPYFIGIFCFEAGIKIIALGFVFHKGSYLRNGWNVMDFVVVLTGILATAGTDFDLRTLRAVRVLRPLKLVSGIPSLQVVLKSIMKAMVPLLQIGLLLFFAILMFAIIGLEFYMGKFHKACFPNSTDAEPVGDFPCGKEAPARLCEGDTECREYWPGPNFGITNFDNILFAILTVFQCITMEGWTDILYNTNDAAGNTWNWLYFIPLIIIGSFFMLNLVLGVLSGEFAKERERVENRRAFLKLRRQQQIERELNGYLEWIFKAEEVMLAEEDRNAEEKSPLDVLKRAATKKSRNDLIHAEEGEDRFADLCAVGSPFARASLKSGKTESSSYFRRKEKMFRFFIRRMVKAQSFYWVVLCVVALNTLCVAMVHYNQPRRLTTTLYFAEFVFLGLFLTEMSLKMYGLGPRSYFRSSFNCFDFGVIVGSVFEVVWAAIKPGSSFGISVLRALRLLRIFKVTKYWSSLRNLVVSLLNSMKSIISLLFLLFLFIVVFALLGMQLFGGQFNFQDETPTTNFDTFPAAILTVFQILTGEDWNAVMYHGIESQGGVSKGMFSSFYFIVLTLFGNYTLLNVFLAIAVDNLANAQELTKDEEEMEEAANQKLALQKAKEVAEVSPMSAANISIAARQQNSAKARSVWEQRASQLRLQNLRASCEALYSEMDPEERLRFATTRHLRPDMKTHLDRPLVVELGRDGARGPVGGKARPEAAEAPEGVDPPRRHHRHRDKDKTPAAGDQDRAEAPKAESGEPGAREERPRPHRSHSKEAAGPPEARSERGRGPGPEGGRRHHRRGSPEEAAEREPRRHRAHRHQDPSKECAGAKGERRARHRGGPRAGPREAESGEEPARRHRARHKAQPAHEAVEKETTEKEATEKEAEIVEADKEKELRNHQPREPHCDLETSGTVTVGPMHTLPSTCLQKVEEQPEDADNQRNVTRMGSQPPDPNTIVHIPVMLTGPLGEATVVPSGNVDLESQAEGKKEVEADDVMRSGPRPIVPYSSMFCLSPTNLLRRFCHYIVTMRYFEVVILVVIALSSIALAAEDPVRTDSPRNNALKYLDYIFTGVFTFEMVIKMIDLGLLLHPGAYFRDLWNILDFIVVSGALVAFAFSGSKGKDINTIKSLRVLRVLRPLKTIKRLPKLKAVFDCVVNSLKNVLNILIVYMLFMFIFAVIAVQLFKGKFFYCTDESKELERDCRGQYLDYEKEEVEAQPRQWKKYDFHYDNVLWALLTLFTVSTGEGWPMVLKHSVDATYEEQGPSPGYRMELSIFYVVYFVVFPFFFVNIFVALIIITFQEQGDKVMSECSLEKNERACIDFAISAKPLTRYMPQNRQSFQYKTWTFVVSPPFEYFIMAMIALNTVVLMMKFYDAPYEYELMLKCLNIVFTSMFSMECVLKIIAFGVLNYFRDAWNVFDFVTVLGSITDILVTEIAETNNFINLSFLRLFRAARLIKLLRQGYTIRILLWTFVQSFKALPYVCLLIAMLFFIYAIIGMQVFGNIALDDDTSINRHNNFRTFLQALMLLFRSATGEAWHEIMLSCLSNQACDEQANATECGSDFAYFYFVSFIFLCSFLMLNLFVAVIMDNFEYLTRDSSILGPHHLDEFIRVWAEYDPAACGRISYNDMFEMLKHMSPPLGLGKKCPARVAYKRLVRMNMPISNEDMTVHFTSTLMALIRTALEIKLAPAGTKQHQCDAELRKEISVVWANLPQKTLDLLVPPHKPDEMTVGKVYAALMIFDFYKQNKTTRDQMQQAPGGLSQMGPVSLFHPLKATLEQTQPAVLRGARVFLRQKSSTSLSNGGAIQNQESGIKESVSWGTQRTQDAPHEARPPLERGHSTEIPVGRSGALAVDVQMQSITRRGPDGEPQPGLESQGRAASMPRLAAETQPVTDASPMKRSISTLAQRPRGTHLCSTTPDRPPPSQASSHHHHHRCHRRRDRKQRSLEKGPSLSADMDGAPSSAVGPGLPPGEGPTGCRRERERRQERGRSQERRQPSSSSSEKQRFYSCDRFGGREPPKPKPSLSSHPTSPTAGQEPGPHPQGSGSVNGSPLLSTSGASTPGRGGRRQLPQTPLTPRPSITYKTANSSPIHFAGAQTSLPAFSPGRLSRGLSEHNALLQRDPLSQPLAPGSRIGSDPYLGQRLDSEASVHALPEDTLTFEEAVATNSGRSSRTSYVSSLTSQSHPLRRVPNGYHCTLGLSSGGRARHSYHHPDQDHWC
T3 sequence (Q02410 whole entry): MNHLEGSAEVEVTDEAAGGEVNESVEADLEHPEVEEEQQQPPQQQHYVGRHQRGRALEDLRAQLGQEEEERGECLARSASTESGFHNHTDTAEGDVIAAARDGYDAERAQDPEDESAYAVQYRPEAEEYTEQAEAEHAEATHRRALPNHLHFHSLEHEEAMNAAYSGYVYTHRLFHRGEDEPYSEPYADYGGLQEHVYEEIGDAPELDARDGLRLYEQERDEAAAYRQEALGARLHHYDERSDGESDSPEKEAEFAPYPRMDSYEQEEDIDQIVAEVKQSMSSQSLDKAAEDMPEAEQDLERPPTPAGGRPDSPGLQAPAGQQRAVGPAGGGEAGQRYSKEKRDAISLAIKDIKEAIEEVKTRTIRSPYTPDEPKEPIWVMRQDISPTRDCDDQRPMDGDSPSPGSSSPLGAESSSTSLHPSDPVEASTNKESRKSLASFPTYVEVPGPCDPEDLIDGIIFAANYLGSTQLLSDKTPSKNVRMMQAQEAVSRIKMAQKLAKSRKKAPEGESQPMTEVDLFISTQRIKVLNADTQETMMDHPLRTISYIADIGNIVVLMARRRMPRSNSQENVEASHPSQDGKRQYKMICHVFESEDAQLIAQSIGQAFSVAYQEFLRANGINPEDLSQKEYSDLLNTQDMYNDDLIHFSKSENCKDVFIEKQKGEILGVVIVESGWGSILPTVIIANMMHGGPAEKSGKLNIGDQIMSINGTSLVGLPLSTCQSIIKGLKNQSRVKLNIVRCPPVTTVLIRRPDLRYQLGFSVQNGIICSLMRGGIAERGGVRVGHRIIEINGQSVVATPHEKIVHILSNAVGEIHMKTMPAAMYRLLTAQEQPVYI

[6] = molecular target: T3, Voltage-gated N-type calcium channel alpha-1B subunit/Amyloid beta A4 precursor protein-binding family A member 1; format: protein assay; remark: listed apart in the source
Large T antigen = Large T antigen (Simian virus 40, UniProt P03070); format: functional, Betapolyomavirus macacae;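 note: Confirmatory-stage PubChem screen for compounds that inhibit SV40 T antigen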
Large T antigen, sequence (P03070 whole entry): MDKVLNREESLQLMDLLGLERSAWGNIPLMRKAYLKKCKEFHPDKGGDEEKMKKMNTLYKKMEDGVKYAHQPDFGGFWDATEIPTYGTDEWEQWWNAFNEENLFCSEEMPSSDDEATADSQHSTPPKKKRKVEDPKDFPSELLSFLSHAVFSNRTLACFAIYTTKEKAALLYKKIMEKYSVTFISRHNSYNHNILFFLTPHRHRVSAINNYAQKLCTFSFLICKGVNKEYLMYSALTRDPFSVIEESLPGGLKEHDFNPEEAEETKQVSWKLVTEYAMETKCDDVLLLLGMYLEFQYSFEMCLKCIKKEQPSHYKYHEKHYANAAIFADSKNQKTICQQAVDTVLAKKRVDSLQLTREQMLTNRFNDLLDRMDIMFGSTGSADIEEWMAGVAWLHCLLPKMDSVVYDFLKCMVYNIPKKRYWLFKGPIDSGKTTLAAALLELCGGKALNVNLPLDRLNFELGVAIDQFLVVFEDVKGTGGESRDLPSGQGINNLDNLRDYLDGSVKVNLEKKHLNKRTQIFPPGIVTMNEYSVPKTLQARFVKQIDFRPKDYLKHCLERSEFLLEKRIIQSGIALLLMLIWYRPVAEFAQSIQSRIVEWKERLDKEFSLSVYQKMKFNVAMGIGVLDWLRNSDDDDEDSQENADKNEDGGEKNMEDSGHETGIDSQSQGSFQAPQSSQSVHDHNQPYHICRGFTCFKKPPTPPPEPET

[7] = molecular target: T4, Mannose-6-phosphate isomerase (Homo sapiens, UniProt P34949); test: phosphomannose isomerase inhibition – biochemical, fluorescence intensity, confirmation (AID 1535)
T4 sequence (P34949 whole entry): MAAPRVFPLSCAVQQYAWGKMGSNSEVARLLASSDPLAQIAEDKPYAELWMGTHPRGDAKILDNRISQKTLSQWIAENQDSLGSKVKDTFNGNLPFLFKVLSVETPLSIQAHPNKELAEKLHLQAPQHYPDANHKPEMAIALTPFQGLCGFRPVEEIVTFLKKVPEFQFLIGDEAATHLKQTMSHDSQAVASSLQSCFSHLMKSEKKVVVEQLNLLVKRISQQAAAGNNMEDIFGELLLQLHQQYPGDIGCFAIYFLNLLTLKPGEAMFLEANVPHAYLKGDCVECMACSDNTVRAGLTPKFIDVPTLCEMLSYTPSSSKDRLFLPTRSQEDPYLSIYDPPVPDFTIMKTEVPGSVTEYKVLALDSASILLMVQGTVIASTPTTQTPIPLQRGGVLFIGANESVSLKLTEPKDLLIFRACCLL

Phosphomannomutase 2 = molecular target: T5, Phosphomannomutase 2 (Homo sapiens, UniProt O15305); test: Counter screen SAR assay for PMM2 inhibitors via a fluorescence intensity assay. [Related pubchem assays (depositor defined):AID1545, AID1574]
T5 sequence (O15305 whole entry): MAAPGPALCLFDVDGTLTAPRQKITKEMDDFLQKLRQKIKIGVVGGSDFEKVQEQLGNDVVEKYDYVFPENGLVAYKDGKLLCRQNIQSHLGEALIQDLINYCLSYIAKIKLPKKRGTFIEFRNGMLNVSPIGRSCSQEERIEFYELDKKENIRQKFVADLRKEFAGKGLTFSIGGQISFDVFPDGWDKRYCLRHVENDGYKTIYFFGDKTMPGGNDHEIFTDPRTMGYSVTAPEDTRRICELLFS

Troponin, cardiac muscle = Troponin, cardiac muscle (Homo sapiens, UniProt P19429+P45379+P63316); test: Fluorescence-based biochemical high throughput dose response assay for activators of the calcium sensitivity of cardiac Regulated Thin Filaments (RTF). [Related pubchem assays (depositor defined):AID493008, AID493018, AID504382, AID504383]; format: protein-complex assay
Hexokinase = molecular target: T6, Hexokinase (Trypanosoma brucei, UniProt Q38C41); test: Confirmation assay for inhibitors of Trypanosoma brucei hexokinase 1-Analogue-first series. [Related pubchem assays (depositor defined):AID1430, AID1632, AID2516, AID2560, AID2579, AID2600, AID449725, AID492951]; format: functional
T6 sequence (Q38C41 whole entry): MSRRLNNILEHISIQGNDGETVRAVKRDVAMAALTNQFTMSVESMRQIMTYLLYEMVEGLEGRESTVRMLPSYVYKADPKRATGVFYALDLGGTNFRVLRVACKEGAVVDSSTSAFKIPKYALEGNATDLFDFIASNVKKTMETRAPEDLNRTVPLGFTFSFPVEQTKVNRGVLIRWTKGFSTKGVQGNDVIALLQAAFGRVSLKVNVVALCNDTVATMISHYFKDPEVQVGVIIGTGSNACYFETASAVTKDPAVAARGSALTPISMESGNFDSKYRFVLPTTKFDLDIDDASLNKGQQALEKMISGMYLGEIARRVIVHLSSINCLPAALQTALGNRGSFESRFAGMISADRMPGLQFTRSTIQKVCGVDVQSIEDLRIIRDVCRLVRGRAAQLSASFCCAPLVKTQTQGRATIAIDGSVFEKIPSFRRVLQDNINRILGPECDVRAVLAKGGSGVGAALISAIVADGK

[8] = molecular target: Glucose-6-phosphate 1-dehydrogenase (Homo sapiens, UniProt P11413); test: inhibition of Homo sapiens G6PD, dose series – biochemical, fluorescence, selectivity assay for P. falciparum G6PD inhibitor project, dose response (AID 504792); format: functional
Glucose-6-phosphate 1-dehydrogenase, sequence (P11413 whole entry): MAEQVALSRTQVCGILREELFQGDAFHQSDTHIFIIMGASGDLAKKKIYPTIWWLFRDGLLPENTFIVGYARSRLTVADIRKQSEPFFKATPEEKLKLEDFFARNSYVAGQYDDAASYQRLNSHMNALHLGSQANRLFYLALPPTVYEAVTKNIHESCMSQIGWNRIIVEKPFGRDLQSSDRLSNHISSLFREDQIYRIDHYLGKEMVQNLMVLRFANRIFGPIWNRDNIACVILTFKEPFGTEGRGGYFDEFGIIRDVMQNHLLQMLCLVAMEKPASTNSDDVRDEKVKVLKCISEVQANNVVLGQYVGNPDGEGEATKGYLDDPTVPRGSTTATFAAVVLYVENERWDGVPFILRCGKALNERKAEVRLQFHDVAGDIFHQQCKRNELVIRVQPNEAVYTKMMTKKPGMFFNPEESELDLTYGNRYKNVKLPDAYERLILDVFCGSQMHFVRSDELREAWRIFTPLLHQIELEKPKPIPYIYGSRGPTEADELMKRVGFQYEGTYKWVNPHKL

[9] = molecular target: Alkaline phosphatase, placental type (Homo sapiens, UniProt P05187); test: human placental alkaline phosphatase inhibition – biochemical, luminescence, confirmation (AID 1512); format: functional
[10] = molecular target: T7, Alkaline phosphatase, tissue-nonspecific isozyme (Homo sapiens, UniProt P05186); test: potency against alkaline phosphatase TNAP – biochemical, luminescent, dose response, SAR follow-up (AID 1056)
T7 sequence (P05186 whole entry): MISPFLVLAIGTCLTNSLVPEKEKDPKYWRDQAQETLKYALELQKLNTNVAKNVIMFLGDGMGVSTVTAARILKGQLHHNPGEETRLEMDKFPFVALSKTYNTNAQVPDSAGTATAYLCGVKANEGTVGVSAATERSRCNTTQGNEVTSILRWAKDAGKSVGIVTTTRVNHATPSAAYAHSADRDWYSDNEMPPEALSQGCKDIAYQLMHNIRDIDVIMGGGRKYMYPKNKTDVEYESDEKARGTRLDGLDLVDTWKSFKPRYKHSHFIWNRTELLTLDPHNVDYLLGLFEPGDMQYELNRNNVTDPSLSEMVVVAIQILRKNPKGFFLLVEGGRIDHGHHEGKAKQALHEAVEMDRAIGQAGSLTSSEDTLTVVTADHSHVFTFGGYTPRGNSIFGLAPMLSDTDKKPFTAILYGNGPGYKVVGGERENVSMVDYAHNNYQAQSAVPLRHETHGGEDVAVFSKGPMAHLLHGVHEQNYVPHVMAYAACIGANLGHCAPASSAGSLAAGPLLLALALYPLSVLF

Cytochrome P450 3A4, sequence (P08684 whole entry): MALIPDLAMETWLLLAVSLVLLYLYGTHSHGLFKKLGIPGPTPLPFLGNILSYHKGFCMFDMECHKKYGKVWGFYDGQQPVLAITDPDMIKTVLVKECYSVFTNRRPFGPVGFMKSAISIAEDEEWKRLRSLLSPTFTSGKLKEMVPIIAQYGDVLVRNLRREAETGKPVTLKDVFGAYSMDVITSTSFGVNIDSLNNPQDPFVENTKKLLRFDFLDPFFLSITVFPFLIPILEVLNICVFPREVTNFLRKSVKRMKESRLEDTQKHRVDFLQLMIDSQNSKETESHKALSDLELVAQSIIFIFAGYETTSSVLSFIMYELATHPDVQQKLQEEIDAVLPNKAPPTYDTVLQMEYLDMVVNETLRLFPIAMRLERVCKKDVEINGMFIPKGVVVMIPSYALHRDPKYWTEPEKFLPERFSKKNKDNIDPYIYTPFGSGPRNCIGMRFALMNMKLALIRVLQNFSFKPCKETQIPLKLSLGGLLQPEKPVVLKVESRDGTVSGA

Structure (SMILES): CCC(=O)OCC(=O)C1(OC(=O)CC)C(C)CC2C3CCC4=CC(=O)C=CC4(C)C3(Cl)C(O)CC21C (configuration not stated)
- AC50 (Cytochrome P450 3A4): 12.6 µM (inconclusive)

Structure (SMILES): CCCCc1cc(=O)oc2c(CN(C)C)c(O)c(Cl)cc12
- IC50 (Aminopeptidase N): 27.3 µM (active)

Structure (SMILES): O=S(=O)(c1ccc(S(=O)(=O)N2CCCC2)cc1)N1CCCCCC1
- IC50 (Coagulation factor XII): > 50 µM (inactive)

Structure (SMILES): Cn1c(=O)cc(OCCCC(=O)N2CCCCC2)c2ccccc21
- IC50 [1]: > 80 µM (inactive)

Structure (SMILES): O=C(OCC(=O)N1CCN(c2ccccc2)CC1)c1cnc(Cl)c(Cl)c1
- CC50 [2]: 34.2 µM (active)
- IC50 (cells): 3.69 µM (active)

Structure (SMILES): CC(C)C[C@@H](N)c1nnc(SCC(=O)c2ccc(Cl)cc2)o1
- IC50 [1]: > 80 µM (inactive)

Structure (SMILES): N#Cc1cccc(NC(=O)C[n+]2c3n(c4ccc(C(F)(F)F)cc42)CCCCC3)c1
- IC50 [3]: 1.97 µM (active)
- IC50 [4]: 2.75 µM (active)

Structure (SMILES): CN1C(=O)C(=C/C=C/Nc2ccccc2)C(=O)N(C)C1=S
- IC50 [5]: 6.18 µM (active)
- IC50 [6]: > 50 µM (inactive)

Structure (SMILES): N=C1/C(=C\c2coc3ccc(O)cc3c2=O)C(=O)N=C2SC=CN12
- IC50 (Aminopeptidase N): 57.6 µM (active)
- IC50 (Large T antigen): 15.8 µM (active)

Structure (SMILES): COc1ccc(N2C(=O)CC(Nc3cccc([N+](=O)[O-])c3)C2=O)cc1 (configuration not stated)
- IC50 (Coagulation factor XII): > 50 µM (inactive)

Structure (SMILES): Cc1cc2n(n1)SC(Nc1cc(Cl)ccc1Cl)N2 (configuration not stated)
- IC50 [7]: > 50 µM (inactive)
- IC50 (Phosphomannomutase 2): > 100 µM (inactive)

Structure (SMILES): O=C(O)c1cc(NCc2ccc(F)cc2)ccc1N1CCOCC1
- EC50 (Troponin, cardiac muscle): > 71.5 µM (inactive)

Structure (SMILES): CC(=O)Nc1ccc(OC(=O)c2cc3cc(Br)ccc3oc2=O)cc1
- IC50 [5]: 2 µM (active)
- IC50 [6]: > 50 µM (inactive)

Structure (SMILES): CCOC(=O)c1cc(-c2cccc([N+](=O)[O-])c2)nc2[nH]c(=O)[nH]c(=O)c12
- IC50 (Aminopeptidase N): 7.44 µM (active)

Structure (SMILES): COc1ccc(C(=O)Nc2cc(Cl)ccc2C#N)cc1
- IC50 (Hexokinase): > 25 µM (inactive)

Structure (SMILES): O=c1c2ccccc2sn1-c1ncc([N+](=O)[O-])s1
- IC50 [7]: 22.7 µM (active)
- IC50 (Phosphomannomutase 2): > 100 µM (inactive)

Structure (SMILES): COc1ccc(N2C(=O)c3ccc(Cl)cc3C2=O)cc1
- IC50 (Hexokinase): > 25 µM (inactive)

Structure (SMILES): O=c1c2ccccc2sn1-c1ccccc1Cl
- IC50 (Hexokinase): 1.97 µM (active)

Structure (SMILES): COc1cc(C(=O)O/N=C2\C=CC(=O)C=C2C)cc(OC)c1OC
- IC50 [8]: > 80 µM (inactive)
- IC50 (Coagulation factor XII): 10.3 µM (active)

Structure (SMILES): CC1(C)CC(=O)C=C(Nc2ccccc2N)C1
- EC50 (Troponin, cardiac muscle): > 71.5 µM (inactive)

Structure (SMILES): Cc1ccc(-c2nnc(SCC(=O)c3ccc(O)c(O)c3)n2-c2ccccc2)cc1
- IC50 [9]: > 100 µM (inactive)
- IC50 [10]: > 100 µM (inactive)

Structure (SMILES): O=c1cc(-c2ccccc2)oc2cccc(O)c12 [5-HYDROXYFLAVONE]
- AC50 (Cytochrome P450 3A4): 6.31 µM (inconclusive) and 20 µM (inconclusive)

Structure (SMILES): C#CCCCCCCCCCCCC(O)CC(O)CO (configuration not stated) [AVOCADYNE]
- AC50 (Cytochrome P450 3A4): 39.8 µM (inconclusive)
